Source: patent US7550438B2, “Methods for production of growth-promoting proteins and peptides for kidney epithelial cells” (The University of Chicago, priority 1997, dated 2009)
pEC50: −log10 of the molar value. Several values for one entry are separate records, joined by “and”; a condition that tells them apart may be missing. Identical values can stand only once. Like-named read-outs stand apart in the source and are kept apart here.

How the values were obtained:
[1] = test system: monkey kidney epithelial cells of the BSC-1 line; experiment: Growth-promoting (mitogenic) activity: number of cells in BSC-1 cultures counted four days after addition; assay type: cell-based, African green monkey; conditions: for pEC50: read-out: Growth-Stimulation K½; for stimulation of growth (increase in cell number compared to control at four days): agent alone at maximal mitogenic concentration (14-Ser 0.5 μg/ml; EGF, IGF-I 50 ng/ml; acidic FGF 100 pg/ml; basic FGF 1,000 pg/ml; vasopressin 75 pg/ml; K 10.4 mM; Na 180 mM)
BSC-1 cells = experiment: Time of contact with cells required to commit them to accelerated growth (washout, count at four days); assay type: cell-based, African green monkey
Description: Confluent monolayers of BSC-1 cells are prepared as herein and exposed to the 14-Ser peptide (0.5 μg/ml) for different amounts of time (0 to 30 minutes). At the end of the defined exposure period, culture medium containing the mitogen was aspirated, the monolayer was rinsed to remove non-adherent peptide, and fresh medium was added. Four days later the number of cells in the culture was counted.
In these experiments a solution containing the peptide of interest was added to the cell monolayer; culture medium was then aspirated at a specified time thereafter. Then fresh medium without the peptide was added and the number of cells was counted four days later.

[2] = test system: kidneys of rats given mercuric chloride; experiment: BrdU labeling of DNA synthesis in kidneys of rats given mercuric chloride; assay type: in vivo, rat; conditions: 14-Ser 100 μg 24 hours before mercuric chloride; 1 hour BrdU labeling 24 hours after
Description: To determine if the beneficial effects of 14-Ser peptide on survival and renal function were the result of the mitogenic action of the peptide, DNA synthesis was measured in the kidneys of rats given mercuric chloride. 5-Bromo-2′-deoxyuridine (BrdU), a nonradioactive analog of thymidine that is incorporated into DNA was used to label nuclei. A monoclonal antibody to BrdU and diamidobenzidene staining were used to detect nuclei undergoing DNA synthesis in histological sections of renal tissue. BrdU was dissolved in 20% ethanol and was injected intra-peritoneally 23 hours after administration of mercuric chloride. One hour later the kidneys were quickly perfused with a warm solution of phosphate-buffered saline via an aortic catheter to eliminate red blood cells from the organ and maintain potency of the renal tubules. The capsule was removed from the kidneys which were the bisected longitudinally, and fixed in formalin for 4 hours, and then in 70% ethanol. Tissue sections were prepared and BrdU-labeled nuclei were detected as described above.
In the kidneys of a rats given mercuric chloride, extensive necrosis of tubular cells of the terminal portion (S3) of the proximal nephron was observed, as expected in this well-characterized model system. The extent of necrosis was somewhat variable from rat-to-rat but was always confined to the aglomerular cortex. […]

Sequence: AQPYPQGNHEASYG
- pEC50 ([1]; + heparin (1 μg/ml)): 7.40
- pEC50 ([1]; + keratan sulfate (2 μg/ml for 5 minutes prior to peptide, b158; 10 μg/ml)): 7.17
- stimulation of growth (increase in cell number compared to control at four days) [1]: 25%
- stimulation of growth (increase in cell number compared to control at four days) ([1]; listed as 14-Ser Peptide): 25-30%
- stimulation of growth (increase in cell number compared to control at four days) ([1]; listed as 14-Ser peptide): 25-30% and 25%
- pEC50 ([1]; peptide alone, BSC-1 cells, 4 days in culture): 6.90
- exposure time for half-maximal stimulation (BSC-1 cells; 14-Ser 0.5 μg/ml): 1 min
- maximal growth stimulation after 2 minutes exposure (BSC-1 cells; 14-Ser 0.5 μg/ml, count at four days): 29%
- exposure time sufficient for maximal growth stimulation (commitment time) (BSC-1 cells; peptide then washed off, cells counted four days later): 2 min
- BrdU-labeled nuclei adjacent to the zone of tubular cell necrosis [2]: many more labeled nuclei
